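All cell lines were grown in 96-well plates and treated with compound for 48 hours. Abbreviation: GI50, concentration required for 50% inhibition of growth.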 Active and inactive are the calls of the source. Cut-off read from the data, not from the text of the source: active = GI50 up to about 1.1 µM and inactive = higher.
Columns and labels:
Assay in all cases: inhibition of tumour cell growth, NCI panel, 48 h
786-0 = tested on: 786-0
BT-549 = tested on: BT-549
CAKI-1 = tested on: CAKI-1
DU-145 = tested on: DU-145
EKVX = tested on: EKVX
HCC 2998 = tested on: HCC 2998
HL-60 = tested on: HL-60
HT-29 = tested on: HT-29
Hs-578T = tested on: Hs-578T
LOX IMVI = tested on: LOX IMVI
M14 = tested on: M14
MDA-MB-435 = tested on: MDA-MB-435
Malme-3M = tested on: Malme-3M
NCI-H226 = tested on: NCI-H226
OVCAR-8 = tested on: OVCAR-8
PC-3 = tested on: PC-3
RXF 393 = tested on: RXF 393
SK-MEL-2 = tested on: SK-MEL-2
UACC-257 = tested on: UACC-257
UACC-62 = tested on: UACC-62

Compound | GI50 (786-0) | GI50 (BT-549) | GI50 (CAKI-1) | GI50 (DU-145) | GI50 (EKVX) | GI50 (HCC 2998) | GI50 (HL-60) | GI50 (HT-29) | GI50 (Hs-578T) | GI50 (LOX IMVI) | GI50 (M14) | GI50 (MDA-MB-435) | GI50 (Malme-3M) | GI50 (NCI-H226) | GI50 (OVCAR-8) | GI50 (PC-3) | GI50 (RXF 393) | GI50 (SK-MEL-2) | GI50 (UACC-257) | GI50 (UACC-62)
COc1cc(O)c2c(=O)c3ccccc3n(C)c2c1 | 21.5 µM (inactive) | 52.2 µM (inactive) | > 100 µM (inactive) | > 100 µM (inactive) | 0.555 µM (active) | > 100 µM (inactive) | > 100 µM (inactive) | > 100 µM (inactive) | 13.4 µM (inactive) | 84.5 µM (inactive) | > 100 µM (inactive) | > 100 µM (inactive) | > 100 µM (inactive) | > 100 µM (inactive) | 18.7 µM (inactive) | > 100 µM (inactive) | 14.9 µM (inactive) | > 100 µM (inactive) | > 100 µM (inactive) | 24.6 µM (inactive)
O=Cc1ccc(Oc2c3ccccc3nc3ccccc23)cc1 | 2.32 µM (inactive) | 14.8 µM (inactive) | 7.05 µM (inactive) | 3.84 µM (inactive) | 17.7 µM (inactive) | 14.8 µM (inactive) | < 0.01 µM (active) | 2.07 µM (inactive) | 2.53 µM (inactive) | 2.9 µM (inactive) | 3.44 µM (inactive) | 2.45 µM (inactive) | 11.8 µM (inactive) | 4.03 µM (inactive) | 5.75 µM (inactive) | 6.34 µM (inactive) | 7.98 µM (inactive) |  | 0.346 µM (active) | 0.46 µM (active)
CC1(C)CN=C(Nc2ccc(F)c(F)c2)S1 | > 100 µM (inactive) | > 100 µM (inactive) | > 100 µM (inactive) | > 100 µM (inactive) | > 100 µM (inactive) | > 100 µM (inactive) | > 100 µM (inactive) | > 100 µM (inactive) | > 100 µM (inactive) | > 100 µM (inactive) | > 100 µM (inactive) | > 100 µM (inactive) | > 100 µM (inactive) | > 100 µM (inactive) | > 100 µM (inactive) | > 100 µM (inactive) | > 100 µM (inactive) | > 100 µM (inactive) | > 100 µM (inactive) | > 100 µM (inactive)
COc1ccc(-n2cnc3c(N)nc(N)nc32)cc1 | > 100 µM (inactive) | > 100 µM (inactive) | 76.7 µM (inactive) | > 100 µM (inactive) | 24.8 µM (inactive) | 64.4 µM (inactive) |  | > 100 µM (inactive) | 25.6 µM (inactive) |  | > 100 µM (inactive) | > 100 µM (inactive) | > 100 µM (inactive) | > 100 µM (inactive) | > 100 µM (inactive) | > 100 µM (inactive) | 43.2 µM (inactive) | 54.2 µM (inactive) | > 100 µM (inactive) | 30.8 µM (inactive)
COC(=O)c1ccc(NCc2cc(O)ccc2O)cc1 | 9.4 µM (inactive) | 1.04 µM (active) | 21.3 µM (inactive) | 12.4 µM (inactive) | 15.6 µM (inactive) | 14.4 µM (inactive) | 1.69 µM (inactive) | 23.1 µM (inactive) | 3.93 µM (inactive) | 10.2 µM (inactive) | 18 µM (inactive) | 4.63 µM (inactive) | 6.71 µM (inactive) | 8.38 µM (inactive) | 11.6 µM (inactive) | 4.39 µM (inactive) | 6.73 µM (inactive) | 16 µM (inactive) | 14.4 µM (inactive) | 10.4 µM (inactive)
NS(=O)(=O)c1ccc(NCc2cnc3ccccc3n2)cc1 | > 100 µM (inactive) | > 100 µM (inactive) | > 100 µM (inactive) | > 100 µM (inactive) | > 100 µM (inactive) | > 100 µM (inactive) | > 100 µM (inactive) | > 100 µM (inactive) | > 100 µM (inactive) |  | > 100 µM (inactive) | > 100 µM (inactive) | > 100 µM (inactive) | > 100 µM (inactive) | > 100 µM (inactive) | > 100 µM (inactive) | > 100 µM (inactive) | > 100 µM (inactive) | > 100 µM (inactive) | > 100 µM (inactive)
O=C1C=CC(=O)c2c1c1c(c3c2C2c4ccccc4C3c3ccccc32)C2c3ccccc3C1c1ccccc12 | 1.45 µM (inactive) | 3.26 µM (inactive) | 1.73 µM (inactive) | 15.1 µM (inactive) | 3.66 µM (inactive) | 6.92 µM (inactive) | 1.54 µM (inactive) | 2.11 µM (inactive) | 4.29 µM (inactive) | 1.64 µM (inactive) | 1.7 µM (inactive) | 1.75 µM (inactive) | 1.6 µM (inactive) | 4.71 µM (inactive) | 1.53 µM (inactive) | 1.74 µM (inactive) | 1.59 µM (inactive) | 1.89 µM (inactive) | 1.85 µM (inactive) | 2.07 µM (inactive)
O=C1CCCC(=O)N1n1c(Cc2ccc(Cl)cc2)n[nH]c1=O | > 100 µM (inactive) | > 100 µM (inactive) | > 100 µM (inactive) | > 100 µM (inactive) | > 100 µM (inactive) | > 100 µM (inactive) | > 100 µM (inactive) | > 100 µM (inactive) | > 100 µM (inactive) | > 100 µM (inactive) | > 100 µM (inactive) | > 100 µM (inactive) | > 100 µM (inactive) | > 100 µM (inactive) | > 100 µM (inactive) | > 100 µM (inactive) | > 100 µM (inactive) | > 100 µM (inactive) | > 100 µM (inactive) | > 100 µM (inactive)
O=C1C(=Cc2ccco2)C(=O)C2CCCCC12 (centres undefined) | > 100 µM (inactive) | > 100 µM (inactive) | > 100 µM (inactive) | > 100 µM (inactive) | > 100 µM (inactive) | > 100 µM (inactive) |  | > 100 µM (inactive) | > 100 µM (inactive) | > 100 µM (inactive) | > 100 µM (inactive) | > 100 µM (inactive) | > 100 µM (inactive) | > 100 µM (inactive) | > 100 µM (inactive) | > 100 µM (inactive) | > 100 µM (inactive) | > 100 µM (inactive) | > 100 µM (inactive) | > 100 µM (inactive)
Nc1nc2c(C(=O)O)c3ccc([N+](=O)[O-])cc3c(=O)n2c2ccccc12 | 20.6 µM (inactive) | 27.9 µM (inactive) | 34.4 µM (inactive) | 16.5 µM (inactive) | 27.9 µM (inactive) | 32.3 µM (inactive) | 32.1 µM (inactive) | 34.7 µM (inactive) | 23.8 µM (inactive) | 11.9 µM (inactive) | 21.4 µM (inactive) | 27.2 µM (inactive) | 40 µM (inactive) | 21.2 µM (inactive) | 18.7 µM (inactive) | 24.5 µM (inactive) | 14.5 µM (inactive) | 24.9 µM (inactive) |  | 28.1 µM (inactive)
Cc1ccc(S(=O)(=O)Oc2nc3ccccc3nc2OS(=O)(=O)c2ccc(C)cc2)cc1 | > 100 µM (inactive) | > 100 µM (inactive) | 8.39 µM (inactive) | > 100 µM (inactive) | > 100 µM (inactive) | > 100 µM (inactive) | 32.3 µM (inactive) | > 100 µM (inactive) | > 100 µM (inactive) | > 100 µM (inactive) | 33.7 µM (inactive) | > 100 µM (inactive) | 17 µM (inactive) | > 100 µM (inactive) | > 100 µM (inactive) | > 100 µM (inactive) | > 100 µM (inactive) | > 100 µM (inactive) | > 100 µM (inactive) | > 100 µM (inactive)
BrCCC[P+](c1ccccc1)(c1ccccc1)c1ccccc1 | 13.5 µM (inactive) | 8.39 µM (inactive) | > 100 µM (inactive) | 32.7 µM (inactive) | 14.4 µM (inactive) | > 68.4 µM (inactive) | 1.18 µM (inactive) | 15.9 µM (inactive) | 15.5 µM (inactive) | 0.736 µM (active) | 11.8 µM (inactive) | 4.61 µM (inactive) | 16.2 µM (inactive) | > 78.7 µM (inactive) | 12.4 µM (inactive) | 5.65 µM (inactive) | 2.89 µM (inactive) | 26.7 µM (inactive) | 2.71 µM (inactive) | 14 µM (inactive)
CCOC(=O)c1c(NC(=O)c2cccs2)sc2c1CCCC2 | 34.8 µM (inactive) | 58.7 µM (inactive) | 60.4 µM (inactive) | > 80.4 µM (inactive) | 54.8 µM (inactive) | > 100 µM (inactive) | > 100 µM (inactive) | > 100 µM (inactive) | 27.6 µM (inactive) | > 100 µM (inactive) | > 100 µM (inactive) | > 100 µM (inactive) | 29 µM (inactive) | > 38.6 µM (inactive) | 61.9 µM (inactive) | 54.8 µM (inactive) | 12.7 µM (inactive) | 42 µM (inactive) | > 100 µM (inactive) | 52.1 µM (inactive)
O=C(OCc1ccc([N+](=O)[O-])cc1)N1c2ccccc2[C@@]23O[C@]24CCC[C@H]3C#C/C=C\C#C[C@H]14 | > 100 µM (inactive) | > 100 µM (inactive) | 37.4 µM (inactive) | > 100 µM (inactive) | > 100 µM (inactive) | > 100 µM (inactive) | 25 µM (inactive) | > 100 µM (inactive) | 58.9 µM (inactive) | 56.5 µM (inactive) | > 100 µM (inactive) | > 100 µM (inactive) | 19.6 µM (inactive) | > 100 µM (inactive) | > 100 µM (inactive) | > 100 µM (inactive) | > 100 µM (inactive) | > 100 µM (inactive) | > 100 µM (inactive) | > 100 µM (inactive)

— ChEMBL document CHEMBL1201862, “PubChem BioAssay data set” (2004)
